Experimental data reported in patent US20250361284A1, “TRANSPOSASE FUSION PROTEINS FOR USE IN CELL AND GENE THERAPY” (JULIUS-MAXIMILIANS-UNIVERSITÄT WÜRZBURG, priority 2022, published 2025).

What was measured:
K562/CD19 target cells = test: Bioluminescence-based cytolytic activity of CD8+ CD19 CAR T cells; type: cell-based, human; conditions: TMP 1000 nM
Experimental: (5C) Specific cytolytic activity of CD8+ CD19 CAR-T cells against K562/CD19 target cells. Cytolytic activity of CD8+ CD19-CAR T cells was evaluated by co-culture with K562/CD19 or K562 target cells using a bioluminescence-based assay. The assay was setup with effector T cells (CD8+ CD19-CAR T cells) at various effector/target (E:T) ratios in 96 well flat bottom plates. Luminescence intensities were recorded at specific time points (1, 3, 5, 24 hours) using a luminometer. Specific lysis was calculated using the standard formula. Data shown are from one representative experiment.
(5D) Specific cytolytic activity of CD8+ CD19 CAR-T cells engineered with dd-SB100X fusion transposase vs. wild type SB100X transposase. […] Data was analyzed by unpaired t-test.
Anonymous healthy donor blood samples were received upon written consent to participate in research protocols approved by the Institutional Review Board of the Universitätsklinikum Würzburg (UKW). Blood samples were processed for T cells isolation as published earlier (Querques et al., 2019). Briefly, Peripheral blood mononuclear cells (PBMCs) were isolated by density centrifugation with Biocoll separating solution (Biochrom). Both CD4+ and CD8+ T cells were sorted by negative isolation approach using microbeads and magnetic associated cell sorting (MACS, Miltenyi) methods as described by the manufacturer. […]

human CD4+ T cells = test: Gene transfer (EGFRt+ T cells, flow cytometry) with degron-SB100X in CD4+ T cells; type: cell-based; conditions: for gene transfer rate (EGFRt+ T cells): day 7 post-nucleofection, n=1
Experimental: (1E) Testing the activity of IKZF3 zinc finger-based degron-SB100X fusion-transposase in human CD4+ T cells. For each condition, 2 million CD3/CD28 activated CD4+ T cells were nucleofected with minicircle DNA encoding a CD19-CAR_EGFRt SB transposon, and plasmid DNA encoding either the wild type SB transposase (SB100X) or the SB fusion-transposase (degron-SB100X). Cells were cultured either in the presence of Pomalidomide (P; 10 μM) or DMSO (D) at the time of nucleofection. At 7 days post-nucleofection, flow cytometric analysis was performed to determine the percentage of T cells that expresses the EGFRt reporter that was encoded in cis with the CD19-CAR. Top panel: Dot plots showing EGFRt expression on day 7 post-nucleofection. Bottom panel: Bar graph showing the percentage of EGFRt+ T cells on day 7 post-nucleofection (n=1).
Anonymous healthy donor blood samples were received upon written consent to participate in research protocols approved by the Institutional Review Board of the Universitätsklinikum Würzburg (UKW). Blood samples were processed for T cells isolation as published earlier (Querques et al., 2019). Briefly, Peripheral blood mononuclear cells (PBMCs) were isolated by density centrifugation with Biocoll separating solution (Biochrom). Both CD4+ and CD8+ T cells were sorted by negative isolation approach using microbeads and magnetic associated cell sorting (MACS, Miltenyi) methods as described by the manufacturer. The isolated CD4+ and CD8+ T cells were cultured in T cell medium (RPMI-1640 with 10% (vol/vol) human serum, 2 mM L-glutamine, 100 U ml-1 penicillin-streptomycin) containing IL-2 (50 units per mL) and activated by anti-CD3/CD28 bead stimulation (Thermo Fisher). Two days post-activation, approximately 2 million T cells were nucleofected with vectors (1 μg of CD19 CAR (EGFRt)-encoding transposon as plasmid or minicircle DNA; 1 μg of mRNA encoding SB transposase) or 10 μg of hsSB protein (Querques et al., 2019) using a 4D Nucleofector (Lonza) as per the manufacturer's instructions. […]

COc1cc(Cc2cnc(N)nc2N)cc(OC)c1OC [TMP, trimethoprim]
effect of TMP treatment on subsequent function of CAR T cells (K562/CD19 target cells): no adverse effects

Nc1cccc2c1C(=O)N(C1CCC(=O)NC1=O)C2=O (stereo not shown) [pomalidomide, reference compound]
effect of pomalidomide on activity of wild type SB100X (lacking the degron tag) (human CD4+ T cells; pomalidomide 10 μM vs DMSO): interfered with the activity of wild type SB100X

degron-SB100X: IKZF3 zinc finger degron tag fused via linker to N-terminus of SB100X transposase; SEQ ID NO: 3
gene transfer rate (EGFRt+ T cells) (human CD4+ T cells; DMSO): ~46.4% | gene transfer rate (EGFRt+ T cells) (human CD4+ T cells; pomalidomide 10 μM): ~1.74%
